Measurements: PubChem BioAssay (NCI)
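Method: 48-hour compound exposure of cells in 96-well plates, five concentrations, linear interpolation of endpoints. At the TGI there is no net growth.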

Legend:
Test in all cases: NCI-60 cell line screen, 48 h
[1] = system: EKVX NSCLC
[2] = system: NCI-H226 lung
[3] = system: MCF7 breast
[4] = system: KM12 colon
[5] = system: ACHN renal
[6] = system: BT-549 breast
[7] = system: A498 renal
[8] = system: SN12C renal
[9] = system: M14 melanoma
[10] = system: SNB-19 CNS
[11] = system: HCC-2998 colon
[12] = system: HT29 colon
[13] = system: NCI/ADR-RES ovarian
[14] = system: SW-620 colon
[15] = system: HOP-92 NSCLC
[16] = system: HOP-62 NSCLC
[17] = system: SNB-75 CNS
[18] = system: CCRF-CEM leukemia
[19] = system: LOX IMVI melanoma

Row | Structure (SMILES) | TGI [1] [µM] | TGI [2] [µM] | TGI [3] [µM] | TGI [4] [µM] | TGI [5] [µM] | TGI [6] [µM] | TGI [7] [µM] | TGI [8] [µM] | TGI [9] [µM] | TGI [10] [µM] | TGI [11] [µM] | TGI [12] [µM] | TGI [13] [µM] | TGI [14] [µM] | TGI [15] [µM] | TGI [16] [µM] | TGI [17] [µM] | TGI [18] [µM] | TGI [19] [µM]
1 | C[n+]1c(-c2ccc(/C=N/Nc3ccnc(N/N=C/c4ccc(-c5cn6ccsc6[n+]5C)cc4)n3)cc2)cn2ccsc21 | 45.7 | 60.6 | > 100 | > 100 | 78.6 | 78.5 | 65.3 | > 100 | 54.7 | > 100 | > 100 | > 100 | > 100 | > 100 | > 100 | 80.2 | 68.3 | 44.2 | –
2 | CCCCCc1nnc(NS(=O)(=O)c2ccc(NC(=O)OCC(C)C)cc2)s1 | 78.2 | – | > 100 | > 100 | > 100 | > 100 | 24.6 | > 100 | > 100 | > 100 | – | 46.1 | > 100 | > 100 | 77.3 | > 100 | – | 77.1 | > 100
3 | O=[N+]([O-])c1ccc(C(Nc2ccccc2)P(c2ccccc2)c2ccccc2)cc1 (stereo not given) | > 100 | > 100 | > 100 | > 100 | > 100 | > 100 | > 100 | > 100 | > 100 | > 100 | – | > 100 | > 100 | > 100 | > 100 | > 100 | > 100 | – | > 100
4 | COC1CC(OC2C(C)OC(OC3C(C)OC(OC4C(O)CC(O[C@H]5CC[C@@]6(C)C(=CC[C@]7(O)[C@@H]6C[C@@H](OC(C)=O)[C@@]6(C)[C@]7(O)CC[C@@]6(O)C(C)=O)C5)OC4C)CC3OC)CC2OC)OC(C)C1O (stereo not given in full) | > 12.5 | > 12.5 | > 12.5 | > 12.5 | > 12.5 | > 12.5 | – | > 12.5 | > 12.5 | > 12.5 | > 12.5 | > 12.5 | > 12.5 | > 12.5 | > 12.5 | > 12.5 | > 12.5 | > 12.5 | > 12.5
5 | CCOC(=O)c1sc2nc(SC)nc3c2c1NCN3c1ccc(F)c(F)c1 | > 100 | > 79.9 | > 100 | > 86.5 | > 100 | > 66.5 | 35.6 | > 100 | > 100 | > 83.2 | > 64 | > 100 | > 88.8 | > 100 | 83 | 34.1 | – | > 100 | > 60.1
6 | COC(=O)[C@H]1NC(=O)CCSSC1(C)C | > 100 | > 100 | > 100 | > 100 | > 100 | > 100 | > 100 | > 100 | > 100 | > 100 | – | > 100 | > 100 | > 100 | > 100 | > 100 | – | > 100 | > 100
7 | C(=Nc1ccc(-c2nc3ccccc3[nH]2)cc1)c1ccc[nH]1 | > 100 | – | > 100 | > 100 | > 100 | > 100 | > 100 | > 100 | > 100 | – | > 100 | > 100 | > 100 | > 100 | > 100 | > 100 | > 100 | 85.1 | > 100
8 | CC12CC3OC(=O)C1COC14OC5(C2C1=O)C(O)(CCC1C4CC2OC24CC=CC(=O)C14C)C(=O)OC35C (stereo not given) | > 100 | – | 40.9 | 36.5 | 30.8 | 9.66 | 43.3 | 60.1 | 44 | 44.9 | 32.8 | > 100 | > 100 | 34.5 | 68.1 | 39.4 | > 100 | 24.1 | 29.5
9 | Brc1ccc2c3c1[C@H]1O[C@H]1c1cccc(c1-3)[C@@H]1O[C@H]21 | 36.5 | 64 | 73.1 | 28.8 | 31.9 | 31.5 | 41.1 | 33.3 | 32.4 | 34.3 | – | 34.7 | 76.8 | – | 38.3 | 30.3 | 26.3 | – | 9.39
10 | O=C(O)C[C@@H]1[C@@H](O)[C@@H](O)CN2C(=O)c3ccccc3[C@H]12 | > 100 | > 100 | > 100 | > 100 | > 100 | > 100 | > 100 | > 100 | > 100 | > 100 | > 100 | > 100 | > 100 | > 100 | – | > 100 | > 100 | – | > 100
11 | CSC1C(=O)Nc2ccc3ccccc3c21 (stereo not given) | 38.2 | > 100 | > 100 | 35.5 | 92.4 | 50.7 | – | 41.9 | 68.3 | > 100 | > 100 | > 100 | > 100 | 49 | 40.6 | 71.8 | 70.5 | 89.3 | 31
12 | COc1cc2cc(C(=O)N3CC(CCl)c4c3cc(NC(=O)OCc3ccc([N+](=O)[O-])cc3)c3ccccc43)[nH]c2c(OC)c1OC (stereo not given) | > 100 | > 100 | > 100 | > 74.2 | > 34.5 | > 100 | – | > 100 | > 100 | > 100 | 16.3 | > 100 | > 100 | > 100 | > 90.5 | > 100 | 67.3 | > 57.6 | > 100
13 | CC(C)CCCC(C)[C@H]1CC[C@H]2[C@@H]3CC[C@H]4C[C@@H](CCC=C(c5cc(Cl)c(O)c(C(=O)OC(C)C)c5)c5cc(Cl)c(O)c(C(=O)OC(C)C)c5)CC[C@]4(C)[C@H]3CC[C@]12C (stereo not given in full) | > 50 | – | > 50 | > 50 | – | > 50 | > 50 | > 50 | > 50 | > 50 | > 50 | > 50 | > 50 | > 50 | > 50 | > 50 | > 50 | > 50 | > 50
